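Values below derive from 48-hour exposures of cells grown in 96-well plates, with endpoints linearly interpolated between the two concentrations bracketing the appropriate inhibition level. GI50 = concentration required for 50% inhibition of growth. The concentration for full growth arrest is given as TGI.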
Columns and labels:
Assay in all cases: NCI anticancer screen, dose series, 48 h
NCI/ADR-RES ovarian = system: NCI/ADR-RES ovarian
SK-MEL-5 melanoma = system: SK-MEL-5 melanoma
786-0 renal = system: 786-0 renal
NCI-H226 lung = system: NCI-H226 lung
MDA-MB-435 = system: MDA-MB-435
SK-MEL-28 melanoma = system: SK-MEL-28 melanoma
SNB-75 CNS = system: SNB-75 CNS
SW-620 colon = system: SW-620 colon
KM12 colon = system: KM12 colon
UO-31 renal = system: UO-31 renal
A498 renal = system: A498 renal
OVCAR-3 ovarian = system: OVCAR-3 ovarian
HS 578T breast = system: HS 578T breast
LOX IMVI melanoma = system: LOX IMVI melanoma
SN12C renal = system: SN12C renal
T-47D breast = system: T-47D breast
RXF 393 renal = system: RXF 393 renal
UACC-62 melanoma = system: UACC-62 melanoma
HL-60(TB) leukemia = system: HL-60(TB) leukemia
SNB-19 CNS = system: SNB-19 CNS
MCF7 breast = system: MCF7 breast
MALME-3M melanoma = system: MALME-3M melanoma
ACHN renal = system: ACHN renal
A549 NSCLC = system: A549 NSCLC
SF-268 CNS = system: SF-268 CNS
K-562 leukemia = system: K-562 leukemia
IGROV1 ovarian = system: IGROV1 ovarian
SK-OV-3 ovarian = system: SK-OV-3 ovarian
SR leukemia = system: SR leukemia
CCRF-CEM leukemia = system: CCRF-CEM leukemia
MOLT-4 leukemia = system: MOLT-4 leukemia
NCI-H23 lung = system: NCI-H23 lung
EKVX NSCLC = system: EKVX NSCLC
M14 melanoma = system: M14 melanoma
CAKI-1 renal = system: CAKI-1 renal
SF-539 CNS = system: SF-539 CNS
NCI-H460 lung = system: NCI-H460 lung
HOP-92 NSCLC = system: HOP-92 NSCLC
HT29 colon = system: HT29 colon
PC-3 prostate = system: PC-3 prostate
NCI-H522 lung = system: NCI-H522 lung
HCT-116 colon = system: HCT-116 colon
BT-549 breast = system: BT-549 breast
RPMI-8226 leukemia = system: RPMI-8226 leukemia
COLO 205 colon = system: COLO 205 colon
SF-295 CNS = system: SF-295 CNS
OVCAR-8 ovarian = system: OVCAR-8 ovarian
TK-10 renal = system: TK-10 renal
UACC-257 melanoma = system: UACC-257 melanoma
MDA-MB-231 breast = system: MDA-MB-231 breast
SK-MEL-2 melanoma = system: SK-MEL-2 melanoma
DU-145 prostate = system: DU-145 prostate
OVCAR-4 ovarian = system: OVCAR-4 ovarian
U251 CNS = system: U251 CNS
OVCAR-5 ovarian = system: OVCAR-5 ovarian
HCC-2998 colon = system: HCC-2998 colon
HOP-62 NSCLC = system: HOP-62 NSCLC
HCT-15 colon = system: HCT-15 colon

For `O=C(O[C@H]1CN[C@H](C#Cc2cc3ncnc(Nc4ccc5c(cnn5Cc5ccccc5)c4)c3s2)C1)N1CCOCC1`, the GI50 (NCI/ADR-RES ovarian) was 9.55 µM, the TGI (NCI/ADR-RES ovarian) was greater than 25 µM and the GI50 (SK-MEL-5 melanoma) was 6.18 µM. For the same molecule, the TGI (SK-MEL-5 melanoma) was greater than 25 µM, the GI50 (786-0 renal) was 7.16 µM and the TGI (786-0 renal) was greater than 25 µM. The GI50 (NCI-H226 lung) was 5.37 µM, the TGI (NCI-H226 lung) was greater than 25 µM and the GI50 (MDA-MB-435) was 6.08 µM. For the same molecule, the TGI (MDA-MB-435) was greater than 25 µM, the GI50 (SK-MEL-28 melanoma) was 9.34 µM and the TGI (SK-MEL-28 melanoma) was greater than 25 µM. It also gave a GI50 (SNB-75 CNS) of 2.01 µM, a TGI (SNB-75 CNS) greater than 23 µM and a GI50 (SW-620 colon) of 8.57 µM. For the same molecule, the TGI (SW-620 colon) was greater than 25 µM, the GI50 (KM12 colon) was 4.63 µM and the TGI (KM12 colon) was 10.5 µM. It also gave a GI50 (UO-31 renal) of 0.536 µM, a TGI (UO-31 renal) of 13.3 µM and a GI50 (A498 renal) of 0.998 µM. For the same molecule, the TGI (A498 renal) was 15.3 µM, the GI50 (OVCAR-3 ovarian) was 3.1 µM and the TGI (OVCAR-3 ovarian) was 10.6 µM. For the same molecule, the GI50 (HS 578T breast) was 0.78 µM, the TGI (HS 578T breast) was greater than 17 µM and the GI50 (LOX IMVI melanoma) was 5.88 µM. The TGI (LOX IMVI melanoma) was greater than 25 µM, the GI50 (SN12C renal) was 2.46 µM and the TGI (SN12C renal) was greater than 25 µM. It also gave a GI50 (T-47D breast) of 2.89 µM, a TGI (T-47D breast) greater than 25 µM and a GI50 (RXF 393 renal) of 1.15 µM. It also gave a TGI (RXF 393 renal) of 11.5 µM, a GI50 (UACC-62 melanoma) of 5.74 µM and a TGI (UACC-62 melanoma) greater than 25 µM. It also gave a GI50 (HL-60(TB) leukemia) of 6.74 µM, a TGI (HL-60(TB) leukemia) greater than 20.4 µM and a GI50 (SNB-19 CNS) of 7.71 µM. It also gave a TGI (SNB-19 CNS) greater than 25 µM, a GI50 (MCF7 breast) of 5.91 µM and a TGI (MCF7 breast) greater than 25 µM. For the same molecule, the GI50 (MALME-3M melanoma) was 4.79 µM, the TGI (MALME-3M melanoma) was 23.7 µM and the GI50 (ACHN renal) was 0.586 µM. The TGI (ACHN renal) was greater than 25 µM, the GI50 (A549 NSCLC) was 3.71 µM and the TGI (A549 NSCLC) was greater than 25 µM. It also gave a GI50 (SF-268 CNS) of 4.43 µM, a TGI (SF-268 CNS) of 24.5 µM and a GI50 (K-562 leukemia) of 6.99 µM. For the same molecule, the TGI (K-562 leukemia) was greater than 25 µM, the GI50 (IGROV1 ovarian) was 0.805 µM and the TGI (IGROV1 ovarian) was greater than 18.7 µM. It also gave a GI50 (SK-OV-3 ovarian) of 0.0182 µM, a TGI (SK-OV-3 ovarian) greater than 12.7 µM and a GI50 (SR leukemia) of 7.53 µM. It also gave a TGI (SR leukemia) greater than 25 µM, a GI50 (CCRF-CEM leukemia) of 3.15 µM and a TGI (CCRF-CEM leukemia) greater than 25 µM. The GI50 (MOLT-4 leukemia) was 4.22 µM, the TGI (MOLT-4 leukemia) was greater than 23.6 µM and the GI50 (NCI-H23 lung) was 11.3 µM. For the same molecule, the TGI (NCI-H23 lung) was greater than 25 µM, the GI50 (EKVX NSCLC) was 0.234 µM and the TGI (EKVX NSCLC) was greater than 11.4 µM. The GI50 (M14 melanoma) was 5.22 µM, the TGI (M14 melanoma) was greater than 25 µM and the GI50 (CAKI-1 renal) was 0.602 µM. The TGI (CAKI-1 renal) was greater than 11.3 µM, the GI50 (SF-539 CNS) was 4.18 µM and the TGI (SF-539 CNS) was greater than 19.1 µM. It also gave a GI50 (NCI-H460 lung) of 7.26 µM, a TGI (NCI-H460 lung) greater than 25 µM and a GI50 (HOP-92 NSCLC) of 1.29 µM. It also gave a TGI (HOP-92 NSCLC) greater than 25 µM, a GI50 (HT29 colon) of 3.92 µM and a TGI (HT29 colon) of 11.5 µM. It also gave a GI50 (PC-3 prostate) of 7.36 µM, a TGI (PC-3 prostate) greater than 25 µM and a GI50 (NCI-H522 lung) of 0.195 µM. For the same molecule, the TGI (NCI-H522 lung) was 4.26 µM, the GI50 (HCT-116 colon) was 3.74 µM and the TGI (HCT-116 colon) was greater than 25 µM. The GI50 (BT-549 breast) was 3.35 µM, the TGI (BT-549 breast) was 9.29 µM and the GI50 (RPMI-8226 leukemia) was 5.38 µM. The TGI (RPMI-8226 leukemia) was 20.4 µM, the GI50 (COLO 205 colon) was 3.78 µM and the TGI (COLO 205 colon) was 8.7 µM. For the same molecule, the GI50 (SF-295 CNS) was 7.49 µM, the TGI (SF-295 CNS) was greater than 25 µM and the GI50 (OVCAR-8 ovarian) was 6.4 µM. For the same molecule, the TGI (OVCAR-8 ovarian) was greater than 25 µM, the GI50 (TK-10 renal) was 0.131 µM and the TGI (TK-10 renal) was 1.83 µM. It also gave a GI50 (UACC-257 melanoma) of 7.45 µM, a TGI (UACC-257 melanoma) greater than 25 µM and a GI50 (MDA-MB-231 breast) of 1.8 µM. For the same molecule, the TGI (MDA-MB-231 breast) was greater than 25 µM, the GI50 (SK-MEL-2 melanoma) was 4.31 µM and the TGI (SK-MEL-2 melanoma) was 19.3 µM. It also gave a GI50 (DU-145 prostate) of 2.16 µM, a TGI (DU-145 prostate) greater than 22.9 µM and a GI50 (OVCAR-4 ovarian) of 5.3 µM. The TGI (OVCAR-4 ovarian) was greater than 25 µM, the GI50 (U251 CNS) was 6.03 µM and the TGI (U251 CNS) was greater than 25 µM. The GI50 (OVCAR-5 ovarian) was 1.64 µM, the TGI (OVCAR-5 ovarian) was greater than 25 µM and the GI50 (HCC-2998 colon) was 5 µM. For the same molecule, the TGI (HCC-2998 colon) was greater than 25 µM, the GI50 (HOP-62 NSCLC) was 4.86 µM and the TGI (HOP-62 NSCLC) was greater than 25 µM. It also gave a GI50 (HCT-15 colon) of 2.37 µM and a TGI (HCT-15 colon) greater than 25 µM.
